Experimental data reported in US20050214394A1, “Hippophae rhamnoides compositions for cancer therapy” (priority 2003, published 2005).

What was measured:
[1] = biological target: T1, COX-1 (Ovis aries, UniProt P05979); assay: COX-1 ELISA assay kit (PGHS-1 converting arachidonic acid to prostaglandins); conditions: commercial anti-inflammatory drug (positive control); concentration not given
T1 sequence (P05979 25-600): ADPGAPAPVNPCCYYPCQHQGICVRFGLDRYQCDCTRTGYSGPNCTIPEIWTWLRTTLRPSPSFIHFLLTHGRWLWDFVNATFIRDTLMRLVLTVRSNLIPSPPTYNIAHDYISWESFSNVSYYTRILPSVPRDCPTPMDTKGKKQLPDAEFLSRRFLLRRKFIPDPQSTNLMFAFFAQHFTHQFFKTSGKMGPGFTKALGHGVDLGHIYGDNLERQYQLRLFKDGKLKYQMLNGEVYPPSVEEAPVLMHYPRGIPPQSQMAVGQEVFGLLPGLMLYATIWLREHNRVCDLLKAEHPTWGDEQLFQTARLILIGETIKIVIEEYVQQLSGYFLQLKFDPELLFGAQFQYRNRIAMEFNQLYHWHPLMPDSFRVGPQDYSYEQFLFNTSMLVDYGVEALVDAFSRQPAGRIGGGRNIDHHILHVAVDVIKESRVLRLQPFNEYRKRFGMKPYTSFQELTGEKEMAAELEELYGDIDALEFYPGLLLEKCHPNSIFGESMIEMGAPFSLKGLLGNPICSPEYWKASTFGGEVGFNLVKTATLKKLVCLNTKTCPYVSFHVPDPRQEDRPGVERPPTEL

[2] = biological target: T2, COX-2 (Homo sapiens, UniProt P35354); assay: COX-2 ELISA assay kit (PGHS-2 converting arachidonic acid to prostaglandins)
T2 sequence (P35354 18-604): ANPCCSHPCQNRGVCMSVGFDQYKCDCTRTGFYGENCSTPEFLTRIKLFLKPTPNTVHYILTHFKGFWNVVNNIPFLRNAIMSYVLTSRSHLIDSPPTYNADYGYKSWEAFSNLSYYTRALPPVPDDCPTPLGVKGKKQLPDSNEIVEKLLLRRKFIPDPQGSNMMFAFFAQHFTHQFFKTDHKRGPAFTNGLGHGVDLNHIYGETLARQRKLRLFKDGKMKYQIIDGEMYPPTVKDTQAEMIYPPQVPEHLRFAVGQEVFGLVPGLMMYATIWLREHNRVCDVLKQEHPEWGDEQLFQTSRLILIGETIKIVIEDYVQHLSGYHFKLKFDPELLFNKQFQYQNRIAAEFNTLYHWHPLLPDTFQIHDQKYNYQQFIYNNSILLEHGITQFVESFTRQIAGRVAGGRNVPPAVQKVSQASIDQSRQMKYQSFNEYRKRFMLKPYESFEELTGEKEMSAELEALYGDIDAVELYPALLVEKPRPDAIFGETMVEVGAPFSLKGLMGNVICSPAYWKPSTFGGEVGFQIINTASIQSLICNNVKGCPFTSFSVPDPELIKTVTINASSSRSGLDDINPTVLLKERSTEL
Description: The anti-inflammatory assays for COX-2 inhibitory activity were conducted using prostaglandin endoperoxide H synthase-1 and -2 isozymes (PGHS-1, and -2) based on their ability to convert arachidonic acid to prostaglandins (PGs).
Inhibition was measured by COX-1 and COX-2 ELISA assay kits (Cayman Chemical Co., Ann Arbor, Mich.).

SMILES: CC(=O)Oc1ccccc1C(=O)O [aspirin]
- inhibition of COX-1 [1]: 58%
- inhibition of COX-2 [2]: 42%
